Experimental findings from paper PMC9326880 (Journal of Food and Drug Analysis, 2017) are described below.

The subject of series [1] is LS 180 cells.
Series [2] has as its target T1, P-gp (Homo sapiens, UniProt P08183).
The target in series [3] is T1, P-gp. The source holds these as a separate data set.

Structures are written as SMILES. Where two headings read alike, the source gives them in different places.

T1 sequence (P08183 whole entry): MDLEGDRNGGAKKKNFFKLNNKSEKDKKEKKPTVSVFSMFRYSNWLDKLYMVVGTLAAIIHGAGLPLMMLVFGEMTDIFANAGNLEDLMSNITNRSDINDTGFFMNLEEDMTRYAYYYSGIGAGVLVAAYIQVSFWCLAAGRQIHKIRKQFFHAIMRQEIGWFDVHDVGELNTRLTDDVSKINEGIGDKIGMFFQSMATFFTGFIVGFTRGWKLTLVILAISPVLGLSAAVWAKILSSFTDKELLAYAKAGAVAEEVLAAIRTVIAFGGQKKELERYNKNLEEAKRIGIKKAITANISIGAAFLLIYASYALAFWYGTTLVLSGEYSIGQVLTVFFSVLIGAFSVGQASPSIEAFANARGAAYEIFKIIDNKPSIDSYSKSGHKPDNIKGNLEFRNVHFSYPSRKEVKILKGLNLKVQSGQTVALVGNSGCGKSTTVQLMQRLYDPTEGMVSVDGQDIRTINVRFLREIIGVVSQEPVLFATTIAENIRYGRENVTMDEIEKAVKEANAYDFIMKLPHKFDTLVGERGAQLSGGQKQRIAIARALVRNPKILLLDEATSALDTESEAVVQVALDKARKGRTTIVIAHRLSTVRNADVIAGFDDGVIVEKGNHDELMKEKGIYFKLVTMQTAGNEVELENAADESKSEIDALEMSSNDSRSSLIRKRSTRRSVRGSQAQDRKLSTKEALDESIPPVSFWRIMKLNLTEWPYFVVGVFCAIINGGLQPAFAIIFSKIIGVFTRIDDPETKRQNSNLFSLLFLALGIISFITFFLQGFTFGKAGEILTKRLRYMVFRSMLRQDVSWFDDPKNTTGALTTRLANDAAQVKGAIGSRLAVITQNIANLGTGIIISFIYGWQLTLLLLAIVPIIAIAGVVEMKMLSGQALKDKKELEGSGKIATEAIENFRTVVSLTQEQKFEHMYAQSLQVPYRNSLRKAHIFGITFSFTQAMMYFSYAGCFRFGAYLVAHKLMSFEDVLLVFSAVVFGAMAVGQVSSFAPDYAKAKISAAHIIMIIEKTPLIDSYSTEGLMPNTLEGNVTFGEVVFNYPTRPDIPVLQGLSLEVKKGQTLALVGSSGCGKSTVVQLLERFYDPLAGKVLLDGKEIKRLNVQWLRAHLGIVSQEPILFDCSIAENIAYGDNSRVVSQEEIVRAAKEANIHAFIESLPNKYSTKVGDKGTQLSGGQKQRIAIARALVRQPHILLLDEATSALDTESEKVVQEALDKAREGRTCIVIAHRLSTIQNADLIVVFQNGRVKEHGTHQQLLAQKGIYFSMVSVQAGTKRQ

For the molecule `COc1ccc2cc3[n+](cc2c1OC)CCc1cc2c(cc1-3)OCO2` [berberine, Berberine], the “Influence on viability of LS 180 cells (MTT)” value (shortened to “Influence on viability”) in series [1] is “no toxic influences”. For the same molecule, the “Decrease of intracellular accumulation of rhodamine 123” value (from here on “Decrease”) in series [2] is 24–39%.

As to `c1c2c(cc3c1OCO3)-c1cc3ccc4c(c3c[n+]1CC2)OCO4` [coptisine, Coptisine], in series [1], the “Influence on viability” value is recorded as “no toxic influences”. Moreover, in series [2], the “Decrease” value is recorded as 24–39%.

On to `COc1cc2c(cc1OC)-c1cc3ccc(OC)c(OC)c3c[n+]1CC2` [palmatine, Palmatine], for which, in series [1], the “Influence on viability” value is reported as “no toxic influences”. Also, in series [2], the “Decrease” value is on record as 16–18%.

On to `CO[C@H]1/C=C/O[C@@]2(C)Oc3c(C)c(O)c4c(O)c(c(/C=N/N5CCN(C)CC5)c(O)c4c3C2=O)NC(=O)/C(C)=C\C=C\[C@H](C)[C@H](O)[C@@H](C)[C@@H](O)[C@@H](C)[C@H](OC(C)=O)[C@@H]1C` [rifampin, Rifampin], for which, in series [1], the “Influence on viability” value is listed as “no toxic influences”. For the same molecule, in series [3], the “Decrease” value is recorded as 22.7%.

On to `COc1ccc(CCN(C)CCCC(C#N)(c2ccc(OC)c(OC)c2)C(C)C)cc1OC` (stereo not shown) [verapamil], for which, in series [1], the “Influence on viability” value is on record as “no toxic influences”. In series [2], the “Enhancement of intracellular accumulation of rhodamine 123” value amounted to 32.5%.
